Measured values: paper PMC11137019, “G protein-specific mechanisms in the serotonin 5-HT2A receptor regulate psychosis-related effects and memory deficits” (Nature Communications, 2024)
Counter-ions that a name gives are not always drawn.

Molecular target: T1, 5-HT2AR (CHO-5-HT2A cell membranes) (Homo sapiens, UniProt P28223)
T1 construct: gene HTR2A; membranes from CHO-5-HT2A cell line prepared in the authors' laboratory
Test: [3H]ketanserin competition binding, CHO-5-HT2A membranes
Conditions: […] °C, […] min, orthosteric site

T1 sequence (P28223 whole entry): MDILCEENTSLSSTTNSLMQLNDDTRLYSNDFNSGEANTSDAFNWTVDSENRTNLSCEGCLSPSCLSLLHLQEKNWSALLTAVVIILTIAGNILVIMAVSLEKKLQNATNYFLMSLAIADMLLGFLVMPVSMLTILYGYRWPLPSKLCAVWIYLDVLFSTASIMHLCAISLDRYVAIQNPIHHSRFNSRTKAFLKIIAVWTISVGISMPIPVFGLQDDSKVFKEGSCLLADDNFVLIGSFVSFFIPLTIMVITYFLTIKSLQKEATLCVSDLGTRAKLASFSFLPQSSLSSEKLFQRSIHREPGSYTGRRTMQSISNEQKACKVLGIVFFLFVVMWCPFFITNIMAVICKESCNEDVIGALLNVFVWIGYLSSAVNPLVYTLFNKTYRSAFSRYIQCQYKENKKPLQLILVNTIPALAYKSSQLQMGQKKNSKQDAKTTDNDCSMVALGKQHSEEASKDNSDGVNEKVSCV

## NCCc1c[nH]c2ccc(-c3ccc4c(c3)OCCO4)cc12 [OTV1, 2-[5-(2,3-dihydro-1,4-benzodioxin-6-yl)-1H-indol-3-yl]ethan-1-amine Hydrochloride]
  pKi: Ligand binding affinities (pKi) are indicated for Nitro-I, Met-I, OTV1 and OTV2
